Where a name gives a salt, the structure may show the parent alone.
How the values were obtained:
MEK1 [1] = tested on: MEK1
Experimental: ERK2 nucleocytoplasmic shuttling. (a) HEK293ET cells co-expressing C-MEK1-DD and EGFP-ERK2 were illuminated (2 s, 365 nm, 1 mW/cm^2), then 8 minutes after illumination, U0126 (10 μM) was added to block the activity of photoactivated C-MEK1-DD and unveil EGFP-ERK2 efflux from the nucleus. […] Scale bars represent 5 μm. (b) The graph presents the normalized F(n/c) as a function of time after illumination (mean±SD of ten representative cells). The arrow indicates the time when U0126 was added.
To unveil this compensating process and visualize ERK2 nuclear export, we induced EGFP-ERK2 nuclear translocation by C-MEK1-DD photoactivation, and then blocked MEK1-induced ERK2 nuclear translocation by addition of the MEK1 inhibitor U0126.
Live cell imaging—Live cells grown in μ-Dish (Ibidi) were imaged at room temperature with an inverted Zeiss LSM 710 Laser Scanning Microscope equipped with a Plan Apochromat 63×/1.4 oil immersion objective. […] The mean nuclear (Fn) and cytoplasmic (Fc) fluorescence intensities were quantified using ImageJ software to enable the F(n/c) ratio to be determined according to the formula: F(n/c)=(Fn−Fb)/(Fc−Fb), where Fb is the mean background fluorescence intensity.

MEK1 [2] = conditions: C-MEK1-ΔN cells, 10 μM U0126 for 30 min before illumination
Experimental: (a) HEK293ET cells co-transfected with plasmids encoding PCKRS, pyrrolysyl tRNACUA, C-MEK1-ΔN-HA and EGFP-ERK2 (either TEY, lanes 7 and 8; or AAA, lanes 9 and 10) were grown in medium supplemented with 2 mM of amino acid 1 (lanes 8 and 10) or without (lanes 7 and 9) for 24 h. […] (b) HEK293ET cells co-transfected with plasmids encoding PCKRS, pyrrolysyl tRNACUA, EGFP-ERK2 and either A-MEK1-ΔN-HA (lane 2), or D-MEK1-ΔN-HA (lanes 3-6), or C-MEK1-ΔN-HA (lanes 7-10) were grown in medium supplemented with 2 mM of 1 and 0.1% FBS for 24 h. Cells expressing D-MEK1-ΔN-HA and C-MEK1-ΔN-HA were illuminated with a 365 nm LED lamp for 60 s. Cells were lysed 1, 10 and 60 min after illumination. (c) HEK293ET cells co-transfected with plasmids encoding PCKRS, pyrrolysyl tRNACUA, EGFP-ERK2 and either A-MEK1-ΔN-HA (lane 2), or D-MEK1-ΔN-HA (lanes 3, 5, 6, 9, 10, 13, 14, 17, 18) or C-MEK1-ΔN-HA (lanes 4, 7, 8, 11, 12, 15, 16, 19, 20) were grown in medium supplemented with 2 mM of amino acid 1 and 0.1% FBS for 24 h. […]
Immunoblotting—Cells were washed with ice-cold phosphate buffer saline (PBS), then lysed with ice-cold universal lysis buffer (Roche) supplemented with protease inhibitors cocktail (Roche), 1 mM sodium vanadate, 5 mM sodium fluoride and 10 mM EDTA. Samples were resolved by SDS-PAGE and analyzed by immunoblotting with appropriate antibodies after transferring to nitrocellulose membranes.

sfGFP-his6 = experiment: Expression of sfGFP-his6 with unnatural amino acid at amber codon 145; type: cell-based, E. coli; conditions: PCKRS/PyltRNACUA pair, 1 (5 mM), amber codon at position 145
Experimental: FIG. 3—A. anti His-tag immunoblot of cell extracts from E. coli cells expressing PCKRS/PyltRNACUA and myoglobin with an amber codon at position 4 (pMyo4TAGHis6) in the presence or absence of 1 mM photocaged lysine 1. B. Coomassie stained gel of Ni-NTA purified sfGFP-his6 from cells containing either the MbPylRS/PyltRNACUA pair and grown with ε-Boc-lysine (BocK) (1 mM), or the PCKRS/PyltRNACUA pair and grown with 1 (5 mM). The unnatural amino acid was introduced into sfGFP in response to an amber codon at position 145. […] C. […] A second peak corresponding to myoglobin with a free lysine is also detected (peak B; obtained mass 18396 Da, expected mass 18395.7 Da). […] D. MS/MS fragmentation of tryptic peptide derived from sfGFP(145-1) (the peptide sequence is shown above the spectrum; MH^+ peptide mass 2145.972 Da). The spectrum confirms the incorporation of 1 at codon 145. The fragmentation sites are illustrated above the spectrum. […] E. ESI-MS analysis of myoglobin produced by PCKRS/PyltRNACUA (with 2 mM 1) after photolysis for 0 min, 1 min and 5 min with 365 nm light (A: caged protein mass 18633.0±1.8 Da, expected mass 18631.7 Da; B: uncaged protein mass 18395.4±0.7 Da, expected mass 18395.7).
To express myoglobin with an incorporated unnatural amino acid, we transformed E. coli DH10B cells with pBKamp-PCKRS and pMyo4TAGPylT-his6. […]

[3] = Decaging of myoglobin containing 1 by 365 nm photolysis, ESI-MS; type: physicochemical; conditions: myoglobin containing 1, in vitro
Experimental: FIG. 3—A. anti His-tag immunoblot of cell extracts from E. coli cells expressing PCKRS/PyltRNACUA and myoglobin with an amber codon at position 4 (pMyo4TAGHis6) in the presence or absence of 1 mM photocaged lysine 1. B. Coomassie stained gel of Ni-NTA purified sfGFP-his6 from cells containing either the MbPylRS/PyltRNACUA pair and grown with ε-Boc-lysine (BocK) (1 mM), or the PCKRS/PyltRNACUA pair and grown with 1 (5 mM). The unnatural amino acid was introduced into sfGFP in response to an amber codon at position 145. […] C. […] A second peak corresponding to myoglobin with a free lysine is also detected (peak B; obtained mass 18396 Da, expected mass 18395.7 Da). […] D. MS/MS fragmentation of tryptic peptide derived from sfGFP(145-1) (the peptide sequence is shown above the spectrum; MH^+ peptide mass 2145.972 Da). […]
Protein total mass was determined on an LCT time-of-flight mass spectrometer with electrospray ionization (ESI, Micromass). […] Theoretical masses of wild-type proteins were calculated using Protparam (http://us.expasy.org/tools/protparam.html), and theoretical masses for unnatural amino acid containing proteins were adjusted manually.
For the analysis of the uncaging process, purified myoglobin was photolysed at 365 nm with a high power LED source module at 365 nm (Black-led-365, Prizmatix). Protein total mass was then determined as described above.

HEK293 cells [4] = experiment: Amber suppression of mCherry-TAG-egfp-ha reporter by PCKRS/PyltRNACUA; type: cell-based, human; conditions: PCKRS/PyltRNACUA pair, 1 mM, Western blot, versus hTyrtRNACUA
Experimental: Adherent human embryonic kidney (HEK)-293 cells were cultured at 37° C. in a 5% CO2 atmosphere in DMEM+GlutaMAX-1 medium (Gibco) supplemented with 10% FBS and 1× pen-strep solution. Cells were transiently transfected with Genejuice (Novagen) according to the manufacturer's protocol. Double transfections were performed using equal amount of both plasmids. Before transfection, medium was replaced by fresh antibiotic-free medium supplemented, when necessary, with the unnatural amino acid (see figure legends for concentrations). Cells were analyzed 24 h after transfection. For western blot analysis, cells were washed with cold PBS, then lysed with universal lysis buffer (Roche) at 4° C. for 10 min. Western Blots were performed using antibodies against HA-tag (Sigma), Flag-tag (Cell signaling), Ds-Red (Clontech) or p53 (Abcam).
For imaging cells expressing mCherry-TAG-EGFP-HA, cells were seeded and transfected in 24-well plates. Laser-scanning confocal microscopy was performed using a Bio-Rad Radiance 2100 system mounted on a Nikon Eclipse TE300 inverted microscope equipped with a Plan Fluor ELWD 20×/0.45 objective. Fluorescence emission was measured between 515-530 nm for EGFP (excitation wavelength: 488 nm) and above 560 nm for mCherry (excitation wavelength: 543 nm).

HEK293 cells [5] = experiment: Photo-control of p53-EGFP nuclear import, live cell imaging; type: cell-based, human; conditions: photolysis 5 s, 365 nm, 1.2 mW/cm^2; amino acid at position 305 of p53
Experimental: Fluorescence confocal micrographs showing the cellular localization of the EGFP fusions of wild-type p53, p53-K305A. D. Confocal micrographs showing the cellular localization of the EGFP fusions before and 50 min after photolysis (5 s; 365 nm; 1.2 mW/cm^2).
For live cell imaging, cells were seeded and transfected in μ-Dish (Ibidi). Live cells were imaged at room temperature with a Zeiss LSM 710 Laser Scanning Microscope equipped with a Plan Apochromat 63×/1.4 oil immersion objective. […] The mean nuclear (Fn) and cytoplasmic (Fc) fluorescence intensities were quantified using ImageJ software to enable the F(n/c) ratio to be determined according to the formula: F(n/c)=(Fn−Fb)/(Fc−Fb), where Fb is the mean background fluorescence intensity.

MAP kinase pathway = experiment: EGFP-ERK2 nuclear translocation upon EGF stimulation; type: cell-based, human; conditions: wild-type MEK1
Experimental: FIG. 16 EGFP-ERK2 nuclear translocation upon EGF stimulation. (a) Montage showing EGFP-ERK2 sub-cellular fluorescence at different time points after activation of co-expressed wt-MEK1 by addition of 100 ng/ml EGF. Scale bars represent 5 μm.
When cells expressing wild-type MEK1 and EGFP-ERK2 are stimulated with 100 ng/ml of epidermal growth factor (EGF) the entire MAP kinase pathway is activated and EGFP-ERK2 is translocated to the nucleus. […] We observe substantial cell-to-cell variability in both the t1/2 for import and the maximal ratio of nuclear to cytoplasmic EGFP-ERK2, and, as previously reported (Cohen-Saidon et al., 2009), we observe less variability in the timing of nuclear import than in the fraction of ERK2 in the nucleus following stimulation (Cohen-Saidon et al., 2009) (FIG. 16c,d). The nuclear accumulation of EGFP-ERK2 peaks and then dissipates to pre-stimulus levels, a well known effect in cellular systems known as exact adaptation (Cohen-Saidon et al., 2009). This effect is not understood in molecular detail for EGF signalling, but must involve cellular processes that compensate for EGF stimulation at some—as yet undefined—point or points in the pathway. […]

EGFP-ERK2 = EGFP-ERK2 nuclear translocation upon photo-activation of caged MEK1, live cell imaging; type: cell-based, human; conditions: resting cells co-expressing EGFP-ERK2, illuminated
Experimental: Cell culture and transfection—Human embryonic kidney 293ET cells were grown at 37° C. in 5% CO2 atmosphere in DMEM+GlutaMAX-1 medium (Gibco) supplemented with 10% fetal bovine serum (FBS) and 1× pen-strep solution for 24 hours before transfection. Cells were transiently transfected with Genejuice (Novagen) according to the manufacturer's protocol. Cells were serum-starved (DMEM with 0.1% FBS) and grown with 2 mM of the photocaged lysine 1 for 24 h before analysis. Growth medium was replaced with fresh 1-free DMEM supplemented with 0.1% FBS before photo-activation experiments.

[6] = tested on: EGFP-ERK2 and endogenous ERK1/2; experiment: Immunoblot of ERK, p90RSK and Elk-1 phosphorylation upon photo-activation of caged MEK1; type: cell-based, human
Description: MEK1 is highly specific for the downstream extracellular signal-regulated protein kinases ERK1 and ERK2, and has no other known substrates (Shaul and Seger, 2007). MEK1 phosphorylates two regulatory residues in ERK1/2, a threonine and a tyrosine, both part of a conserved Thr-Glu-Tyr (TEY) motif (Payne et al., 1991). To verify that the introduction of the photocaged lysine 1 prevents kinase activity, C-MEK1-ΔN was co-expressed with ERK2 fused to an enhanced green fluorescence protein (EGFP-ERK2) in resting HEK293ET cells.
To activate C-MEK1-ΔN we illuminated cells producing the protein for one minute using a 365 nm light-emitting diode (LED) lamp placed underneath the culture plate. This method allows us to illuminate a sufficient number of cells for western blot analysis with monochromatic light that avoids sample heating. […] We observed more phosphorylated EGFP-ERK2 than phosphorylated endogenous ERK1/2. This is consistent with the fact that only a subset of cells contain EGFP-ERK2 and C-MEK1-ΔN, via transfection, while essentially all cells contain endogenous ERK1/2. […] EGFP-ERK2 levels in transfected cells are lower-than or equal to that of the endogenous ERKs. […]

For `N#CC(=C(/N)Sc1ccccc1N)/C(C#N)=C(\N)Sc1ccccc1N` [U0126], the “t1/2 of loss of EGFP nuclear fluorescence” value (MEK1 [1]; 10 μM added 8 min after C-MEK1-DD photoactivation) was < 3 min, the “effect on EGFP-ERK2 nuclear accumulation” value (MEK1 [1]; 10 μM added before illumination, C-MEK1-DD cells) was “significantly blocked nuclear accumulation” and the “increase of endogenous phosphorylated p90RSK and Elk-1 after illumination” value (MEK1 [2]) was “not observed”.

In the case of `CC(OC(=O)NCCCC[C@H](N)C(=O)O)c1cc2c(cc1[N+](=O)[O-])OCO2` (stereo partly drawn) [compound 1, (2S)-2-Amino-6-{([1-(6-nitrobenzo[d][1,3]dioxol-5-yl)ethoxy]carbonylamino}hexanoic acid TFA salt], the “yield of sfGFP-his6 obtained by incorporation” value (sfGFP-his6) is reported as 1 mg/L, the “decaging upon irradiation with 365 nm light” value [3] is reported as “efficiently decaged” and the efficiency of incorporation (HEK293 cells [4]) is reported as “comparable to the efficiency of incorporation of tyrosine”.

In the case of `N[C@@H](Cc1ccc(O)cc1)C(=O)O` [tyrosine], the “p53 localization following photolysis” value (HEK293 cells [5]) is reported as “did not localize to the nucleus”.

For “EGF: Recombinant human epidermal growth factor, purchased from Gibco”, the “lag phase prior to rapid nuclear accumulation of EGFP-ERK2” value (MAP kinase pathway; 100 ng/ml EGF) was 3 min and the “t1/2 of EGFP-ERK2 nuclear translocation” value (MAP kinase pathway; EGF-stimulated activation of the whole pathway, 100 ng/ml) was 4.5 min.

In the case of “wt-MEK1: wild-type MEK1 [reference compound]”, the “EGFP-ERK2 nuclear translocation upon illumination” value (EGFP-ERK2) is reported as “no nuclear translocation was observed”.

B1: D-MEK1-ΔN: dead MEK1 with deletion Δ30-49 and mutation K97M (protein, UniProt Q02750 1-393, looked up, variant del30-49 K97M)
Dual specificity …: MPKKKPTPIQLNPAPDGSAVNGTSSAETNLEAFLTQKQKVGELKDDDFEKISELGAGNGGVVFKVSHKPSGLVMARMLIHLEIKPAIRNQIIRELQVLHECNSPYIVGFYGAFYSDGEISICMEHMDGGSLDQVLKKAGRIPEQILGKVSIAVIKGLTYLREKHKIMHRDVKPSNILVNSRGEIKLCDFGVSGQLIDSMANSFVGTRSYMSPERLQGTHYSVQSDIWSMGLSLVEMAVGRYPIPPPDAKELELMFGCQVEGDAAETPPRPRTPGRPLSSYGMDSRPPMAIFELLDYIVNEPPPKLPSGVFSLEFQDFVNKCLIKNPAERADLKQLMVHAFIKRSDAEEVDFAGWLCSTIGLNQPSTPTHAAGV
modifications: HA tag
notes: dead MEK1 with deletion Δ30-49 and mutation K97M
With B1 the “phosphorylation of EGFP-ERK2 or endogenous ERK1/2 after illumination” value ([6]; 365 nm LED illumination) was “no detectable phosphorylation” and the “endogenous phosphorylated p90RSK and Elk-1 after illumination” value ([6]; resting cells co-expressing EGFP-ERK2, 60 s 365 nm) was “not observed”.

B2: D-MEK1-DD: catalytically dead MEK1 mutant with S218D, S222D and K97M (protein, UniProt Q02750 1-393, looked up, variant S218D S222D K97M)
Dual specificity …: MPKKKPTPIQLNPAPDGSAVNGTSSAETNLEALQKKLEELELDEQQRKRLEAFLTQKQKVGELKDDDFEKISELGAGNGGVVFKVSHKPSGLVMARMLIHLEIKPAIRNQIIRELQVLHECNSPYIVGFYGAFYSDGEISICMEHMDGGSLDQVLKKAGRIPEQILGKVSIAVIKGLTYLREKHKIMHRDVKPSNILVNSRGEIKLCDFGVSGQLIDDMANDFVGTRSYMSPERLQGTHYSVQSDIWSMGLSLVEMAVGRYPIPPPDAKELELMFGCQVEGDAAETPPRPRTPGRPLSSYGMDSRPPMAIFELLDYIVNEPPPKLPSGVFSLEFQDFVNKCLIKNPAERADLKQLMVHAFIKRSDAEEVDFAGWLCSTIGLNQPSTPTHAAGV
modifications: HA tag
notes: catalytically dead MEK1 mutant with S218D, S222D and K97M
With B2 the “EGFP-ERK2 nuclear translocation upon illumination” value (EGFP-ERK2) was “no nuclear translocation was observed”.

Source: patent US20130005019A1, “GENETICALLY ENCODED PHOTO CONTROL” (North Carolina State University, priority 2010, published 2013)
